Laboratory results from patent US8404696B2, “Quinazoline-2,4-dione derivative, and medical compositions for the prophylaxis and treatment of cranial nerve disease containing the same” (Shin Poong Pharmaceutical Co., Ltd., priority 2008, dated 2013).
Values after ≈ are worked out from the molar mass of the structure shown.

How the values were obtained:
[1] = tested on: thoracic aorta of rats; assay: Relaxing effect on thoracic aorta contracted by phenylephrine (organ bath); set-up: species or system rats of SD species; conditions: Rattus norvegicus; 67 μg/mL; phenylephrine 0.5 μM; mean n = 3; read-out: Relaxation percentage
Excerpt: After male rats of SD species (250-300 g) were anesthetized by inhalation of ether, their thoracic aortas were extracted and put into a Krebs buffer (mM; NaCl 118, NaHCO3 27.3, KCl 4.8, MgSO4 1.2, KH2PO4 1.0, CaCl2 1.25, glucose 11.1). 2 mm of aortic ring was made under dissecting microscope and cultured in an organ bath to measure the tension of blood vessels. The organ bath was filled with Krebs buffer and saturated with 95% O2, 5% CO2 to maintain dissolved oxygen and physiological pH. Changing of tension was measured by a tension meter (Hugo-sachs, model K30) and recorded by physiological recorder (Coulbourn polygraph). The length of the blood vessels was increased step by step to make 1.0 g of basal tension for 90 minutes. The equilibrated blood vessel was contracted by phenylephrine (0.5 μM). When the contraction furrow reached equilibrium, compounds were added, followed by observation of relaxation response.

[2] = tested on: pentylentetrazole (PTZ)-induced convulsion; assay: Anti-convulsant effect, pentylentetrazole (PTZ) test; assay type: in vivo; conditions: 10 mg/kg intraperitoneally, PTZ 80 mg/kg subcutaneously; for mortality rate / Induction percentage of convulsion: (animals/total); for mortality rate: negative control 70(17/23); for Induction percentage of convulsion: negative control 100(23/23); for Initiation time of convulsion: negative control 5.0 ± 0.7; for Duration of convulsion: negative control 46.7 ± 3.3
Procedure: An experiment was performed by the method of Ali et al. (Ali, A. et al. 2006, Pharmacological Reports, 58: 242-245). A 10 mg/kg dose of compound was intraperitoneally administered to identify the anti-convulsant effect and the effect was observed (Table 8). Researching the process of activity was performed by the Anti-epileptic Drug Development Program (ADD) of NIH during development of the anti-convulsant drug. One of the assessed items of anti-convulsant activity in the first step of this program is the pentylentetrazole (PTZ) test. […] After 10 mg/kg of the testing drug was administered, assessment was performed by estimating the initiation time of convulsion, duration until convulsion completely disappeared and mortality rate. It was assessed as having an anti-convulsant effect when a single episode of clonic spasm was not shown over 5 seconds on at least one of the 4 laboratory animals after PTZ administration.

[3] = tested on: mouse brain cells; assay: Inhibitory effect on ROS production in brain cells (DCF-DA, NMDA-induced); assay type: cell-based; conditions: 24 h; dose suppressing 50% of production of reactive oxygen compared to control; mouse brain cells; read-out: ROS inhibitory effect ID50
Procedure: Oxidative stress was measured to test inhibitory effects on the production of reactive oxygen species (ROS) by using DCF-DA, which is a fluorescent probe. Brain cells were obtained from brain cortex of mouse to prepare cell solution with 2×10^6 cells/ml. Each brain cell was treated with 11 μM of DCF-DA followed by reaction in 37° C., 5% CO2 incubator for an hour. After washing twice, Compound 3 was treated with a concentration of 125 μg/ml and 250 μg/ml. At the same time, 300 μM of NMDA was treated and it was incubated in 37° C., 5% CO2 incubator for 24 hours.
(§1) ROS inhibitory effect of compounds was represented to the dose suppressing 50% of production of reactive oxygen compared to control. […] The activity of superoxide dismutase (SOD) was measured by using a kit acquired in Sigma.

[4] = tested on: mixed culture of nerve cells-glial cells; assay: Protecting effect on NMDA-induced nerve cell death (LDH release); assay type: cell-based, ICR mouse; conditions: 100 μM NMDA, LDH release after 24 hours
Procedure: Isolation and culture of nerve cells were performed by Choi's method (Choi, D. W. 1985, Neurosci. Lett., 58: 293-297). That is, the cortex was isolated in fetus ICR mouse that was 14 days pregnant, and then single cells were obtained from the tissue using pipette. The cells were aliquoted into 2×10^5/well density in a 24-well plate (Falcon) in which glial cells of cerebral cortex had been cultured in an incubator maintained at 37° C. with 5% CO2 for over 3 weeks. The culture medium was supplemented with MEM (minimum essential medium, Sigma), 2 mM glutamine, 21 mM glucose, 26.5 mM bicarbonate, 10% fetal bovine serum (FBS). In 3-5 days after aliquot, 10 μM Ara-C (cytosine arabinoside) was treated to suppress proliferation of neuroglia. And it was treated with 100 μM NMDA and 1 μg/mL or 2 μg/mL of each sample (compound) to induce the death of nerve cells due to excitable toxicity for 20 minutes, in 12-15 days after aliquot. Because of nerve cell death, lactate dehydrogenase (LDH) accumulated in proportion to the number of dead cells. In 24 hours after drug treatment, the amount of dehydrogenase (LDH) released to outside of cells was measured by using an […] measurement kit (CytoTox 96, Promega). After the reaction was completed, the change of absorbance depending on the amount of LDH was measured by using a microplate spectrophotometer.

[5] = tested on: superoxide dismutase (SOD); assay: Increase of superoxide dismutase (SOD) activity in mouse brain cells; assay type: cell-based; conditions: 100 μg/ml
Procedure: as §1

Row | Compound | inhibition at 67 µg/mL [1] [%] | mortality rate [2] | Induction percentage of convulsion [2] | Initiation time of convulsion [2] [min] | Duration of convulsion [2] [min] | IC50 [3] [µg/mL] | Inhibitory effect of cell death by NMDA-induced excitable neurotoxicity ([4]; 1 μg/ml compound) [%] | Inhibitory effect of cell death by NMDA-induced excitable neurotoxicity ([4]; 2 μg/ml compound) [%] | Increase of SOD activity, compared to control [5]
1 | O=c1[nH]c2ccccc2c(=O)n1CCCCNCCCn1c(=O)[nH]c2ccccc2c1=O [Compound 7, 3-{4-[3-(2,4-dioxo-1,4-dihydro-2H-quinazolin-3-yl)propylamino]butyl}-1H-quinazoline-2,4-dione] | 56.8 | 67(4/6) % | 100(6/6) % | 3.1 ± 0.3 | 42.9 ± 8.7 | 17.7 ± 17.3 (≈ 40.6 µM) | 26.0 | 39.7 | –
2 | O=C(NCCCNCCCCNCCCn1c(=O)[nH]c2ccccc2c1=O)c1ccc(O)cc1 [Compound 8, N-(3-{4-[3-(2,4-dioxo-1,4-dihydro-2H-quinazolin-3-yl)propylamino]butylamino}propyl)-4-hydroxybenzamide] | 35.7 | – | – | – | – | 103 ± 20.4 (≈ 220 µM) | 20.0 | 28.2 | –
3 | CCCCCCn1c(=O)n(CCCNCCCCNCCCn2c(=O)c3ccccc3n(CCCCCC)c2=O)c(=O)c2ccccc21 [Compound 33, 1-hexyl-3-(3-{4-[3-(1-hexyl-2,4-dioxo-1,4-dihydro-2H-quinazolin-3-yl)propylamino]butylamino}propyl)-1H-quinazoline-2,4-dione] | 38.5 | 83(5/6) % | 100(6/6) % | 16.1 ± 2.2 | 36.6 ± 7.6 | 173 ± 19.7 (≈ 261 µM) | 14.6 | 65.1 | –
4 | CC(C)(C)OC(=O)N(CCCCNCCCn1c(=O)[nH]c2ccccc2c1=O)CCCn1c(=O)[nH]c2ccccc2c1=O [Compound 11, [3-(2,4-dioxo-1,4-dihydro-2H-quinazolin-3-yl)propyl]-{4-[3-(2,4-dioxo-1,4-dihydro-2H-quinazolin-3-yl)propylamino]butyl}carbamic Acid tert-butyl ester] | 10.9 | 17(1/6) % | 100(6/6) % | 10.1 ± 4.9 | 44.9 ± 5.8 | – | 15.0 | – | 2.3 ± 3.4
5 | Cn1c(=O)n(CCCN(CCCCN(CCCn2c(=O)c3ccccc3n(C)c2=O)C(=O)OC(C)(C)C)C(=O)OC(C)(C)C)c(=O)c2ccccc21 [Compound 26, (4-{tert-butoxycarbonyl-[3-(1-methyl-2,4-dioxo-1,4-dihydro-2H-quinazolin-3-yl)propyl]amino}butyl)-[3-(1-methyl-2,4-dioxo-1,4-dihydro-2H-quinazolin-3-yl)propyl]carbamic acid tert-butyl ester] | 3.7 | 50(3/6) % | 83(5/6) % | 15.4 ± 9.0 | 33.0 ± 9.5 | – | 8.8 | 29.7 | 0.7 ± 5.7
6 | 3-[3-(4-{N-[3-(2,4-dioxo-1,4-dihydro-2H-quinazolin-3-yl)propyl]-N-benzylamino}butyl)-N-benzylamino]propyl-1H-quinazoline-2,4-dione [Compound 15] | – | 83(5/6) % | 83(5/6) % | 25.7 ± 7.2 | 34.3 ± 7.2 | – | 22.4 | 22.3 | 1.3 ± 3.1
7 | CC(=O)N(CCCCN(CCCn1c(=O)[nH]c2ccccc2c1=O)C(C)=O)CCCNC(=O)c1ccc(O)cc1 [Compound 21, N-{3-[acetyl-(4-{acetyl-[3-(2,4-dioxo-1,4-dihydro-2H-quinazolin-3-yl)propyl]amino}butyl)amino]propyl}-4-hydroxybenzamide] | 2.6 | 0(0/6) % | 67(4/6) % | 22.2 ± 11.9 | 6.7 ± 3.1 | – | 19.6 | 16.6 | −0.3 ± 3.7
8 | CCOC(=O)N(CCCCN(CCCn1c(=O)[nH]c2ccccc2c1=O)C(=O)OCC)CCCn1c(=O)[nH]c2ccccc2c1=O [Compound 16, [3-(2,4-dioxo-1,4-dihydro-2H-quinazolin-3-yl)propyl]-(4-{[3-(2,4-dioxo-1,4-dihydro-2H-quinazolin-3-yl)propyl]ethoxycarbonylamino}butyl)carbamic Acid ethyl ester] | – | 0(0/6) % | 100(6/6) % | 7.6 ± 1.7 | 6.4 ± 2.3 | – | 18.1 | – | 7.5 ± 2.3
9 | CC(C)(C)OC(=O)N(CCCCN(CCCn1c(=O)[nH]c2ccccc2c1=O)C(=O)OC(C)(C)C)CCCn1c(=O)[nH]c2ccccc2c1=O [Compound 17, (4-{tert-butoxycarbonyl-[3-(2,4-dioxo-1,4-dihydro-2H-quinazolin-3-yl)propyl]amino}butyl)-[3-(2,4-dioxo-1,4-dihydro-2H-quinazolin-3-yl)propyl]carbamic acid tert-butyl ester] | 51.7 | – | – | – | – | – | 21.0 | 10.7 | 0.3 ± 0.0
10 | O=C(N(CCCCNCCCn1c(=O)[nH]c2ccccc2c1=O)CCCn1c(=O)[nH]c2ccccc2c1=O)C(F)(F)F [Compound 36, N-[3-(2,4-dioxo-1,4-dihydro-2H-quinazolin-3-yl)propyl]-N-{4-[3-(2,4-dioxo-1,4-dihydro-2H-quinazolin-3-yl)propylamino]butyl}-2,2,2-trifluoroacetamide] | – | 33(2/6) % | 100(6/6) % | 8.9 ± 2.3 | 25.1 ± 9.7 | – | 32.2 | 18.4 | 4.9 ± 1.2
